Key:
[1] = tested on: Enterococcus faecalis ATCC 29212; assay: MIC, broth micro-dilution (CLSI), control strain; format: cell-based
Method: MICs for NCL812 and its analogs (serial two-fold dilutions commencing at 128 μg/ml) were determined (in duplicate) in round bottom 96-well microtitre trays (Sarstedt 82.1582.001), using the broth micro-dilution method recommended by the Clinical and Laboratory Standards Institute (CLSI). […] MIC50, MIC90 and MIC range for NCL812, NCL195 and NCL219 were calculated against each S. pneumoniae, S. aureus or VRE isolate. To assess the potential activity of NCL195 against Gram-negative bacteria, MICs against Acinetobacter spp, E. coli, K. pneumoniae, P. aeruginosa, Proteus spp and Neisseria meningitidis were performed in the presence or absence of 0.08 mM-20 mM EDTA in a standard checkerboard assay.

[2] = tested on: panel of mammalian cell lines (Caco-2, HEL 299, Hep G2, MDBK, MCF7); assay: In vitro cytotoxicity, WST-1, all cell lines tested; format: cell-based; conditions: lower bound over all the cell lines tested
Description: (§1) In order to ensure minimal off target mammalian cell cytotoxicity, we assayed NCL812, NCL195 and NCL219 for in vitro cytotoxicity using a panel of adherent mammalian cell lines: Caco-2 (human colorectal adenocarcinoma cell line), HEL 299 (non-cancerous human lung fibroblast cell line), Hep G2 (human hepatocellular carcinoma cell line), MDBK (normal bovine kidney cell line) and MCF7 (human mammary gland adenocarcinoma cell line). Cell lines were maintained in Dulbecco’s Modified Eagle’s Medium (DMEM; […] After 24 h incubation, media was removed, washed once with medium without antibiotics and fresh medium supplemented with 10% (vol/vol) FBS was added. […] Following exposure for 24 h, WST-1 reagent was added to each well at a final concentration of 10%. […] The IC50 value for each compound against each cell line was determined via non-linear regression (three parameters) using GraphPad Prism v6 software. The robustness of assays was confirmed with selected cell lines (Hep G2 and MDBK) seeded onto a 96–well Microwell Nunclon Delta Surface plate (Thermo Scientific Nunc; Cat No: 136101) at 5 × 10^4 cells per well.

[3] = tested on: S. pneumoniae; assay: MIC, broth micro-dilution (CLSI); format: cell-based, Streptococcus pneumoniae; conditions: for MIC / MIC50 / MIC90: Streptococcus pneumoniae
[4] = tested on: Hep G2; assay: Real-time cell viability, RealTime-Glo MT; format: cell-based, human; conditions: 2 or 8 μg/ml, up to 20 h post-treatment
[5] = tested on: MDBK; assay: Real-time cell viability, RealTime-Glo MT; format: cell-based, bovine; conditions: 2 or 8 μg/ml, up to 20 h post-treatment
Description: as §1

[6] = Microsomal metabolic stability; format: in vitro ADME; conditions: pH 7.4; for microsomal CLint at 0.4 μg/ml / half-life at 0.4 μg/ml: microsomes; for half-life at 0.4 μg/ml: 0.4 μg/ml compound, 0.4 mg/ml protein, NADPH
Method: The metabolic stability assay was performed by incubating 0.4 μg/ml of each test compound with human and mouse liver microsomes (Xenotech, Lot# 1210057 and 1310211, respectively) suspended in 0.1 M pH 7.4 phosphate buffer at 37°C and 0.4 mg/ml protein concentration. The metabolic reaction was initiated by the addition of an NADPH-regenerating system (i.e. NADPH is the cofactor required for CYP450-mediated metabolism) and quenched at various time points over a 60 min incubation period by the addition of acetonitrile containing diazepam as internal standard. Control samples (containing no NADPH) were included (and quenched at 2, 30 and 60 min) to monitor for potential degradation in the absence of cofactor. Test compound concentration vs time data were fitted to an exponential decay function to determine the first-order rate constant for substrate depletion. This was used to calculate a degradation half-life (T1/2), in vitro intrinsic clearance (CLINT), microsome-predicted blood clearance (CLblood) and a microsome-predicted hepatic extraction ratio (EH) according to the in vitro half-life method of Obach[53].

Cl.N=C(NN=Cc1ccc(Cl)cc1)NN=Cc1ccc(Cl)cc1 [NCL812, 2,2'-bis[(4-chlorophenyl)methylene] carbonimidic dihydrazide hydrochloride]
<5 mL/min/kg: Predicted CLblood ([6]; human, 0.4 μg/ml)
4 µg/mL: MIC ([1]; ATCC29212, absence of FBS) | MIC ([3]; A66.1 (serotype 3), 5% FBS) | MIC ([3]; A66.1 (serotype 3), 10% FBS) | MIC ([3]; ATCC6303, ATCC 6303 (serotype 3), 5% FBS + 3% washed RBC) | MIC ([3]; ATCC6303, ATCC 6303 (serotype 3), 10% FBS + 3% washed RBC) | MIC ([3]; L82016 (serotype 6B), 5% FBS) | MIC ([3]; L82016 (serotype 6B), 10% FBS) | MIC ([3]; P9 (serotype 6A), 5% FBS) | MIC ([3]; P9 (serotype 6A), 10% FBS) | MIC ([3]; P21 (serotype 3), 5% FBS) | MIC ([3]; P21 (serotype 3), 10% FBS) | MIC50 ([3]; S1 Table isolates, 5% FBS) | MIC50 ([3]; S1 Table isolates, 10% FBS) | MIC ([3]; TIGR4 (serotype 4), 5% FBS) | MIC ([3]; TIGR4 (serotype 4), 10% FBS) | MIC ([3]; WCH16 (serotype 6A), 5% FBS) | MIC ([3]; WCH43 (serotype 4), 5% FBS) | MIC ([3]; WCH43 (serotype 4), 10% FBS) | MIC ([3]; WCH46 (serotype 4), 5% FBS) | MIC ([3]; WCH46 (serotype 4), 10% FBS) | MIC ([3]; WCH57 (serotype 8), 5% FBS) | MIC ([3]; WCH57 (serotype 8), 10% FBS) | MIC ([3]; WCH77 (serotype 5), 5% FBS) | MIC ([3]; WCH86 (serotype 4), 5% FBS) | MIC ([3]; WCH89 (serotype 7), 5% FBS) | MIC ([3]; WCH92 (serotype 4), 5% FBS) | MIC ([3]; WCH92 (serotype 4), 10% FBS) | MIC ([3]; WCH137 (serotype 6A), 5% FBS) | MIC ([3]; WCH137 (serotype 6A), 10% FBS) | MIC ([3]; WCH158 (serotype 19F), 5% FBS) | MIC ([3]; WCH158 (serotype 19F), 10% FBS) | MIC ([3]; WCH184 (serotype 19F), 5% FBS) | MIC ([3]; WCH184 (serotype 19F), 10% FBS) | MIC ([3]; WCH211 (serotype 11), 5% FBS) | MIC ([3]; WCH211 (serotype 11), 10% FBS)
<0.13: Predicted EH ([6]; mouse, 0.4 μg/ml)
32 µg/mL: MIC ([1]; ATCC29212, 10% FBS)
< 7 µL/min/mg: microsomal CLint at 0.4 μg/ml ([6]; human) | microsomal CLint at 0.4 μg/ml ([6]; mouse)
> 4.12 h: half-life at 0.4 μg/ml ([6]; human) | half-life at 0.4 μg/ml ([6]; mouse)
<16 mL/min/kg: Predicted CLblood ([6]; mouse, 0.4 μg/ml)
> 4 µg/mL: IC50 [2]
8 µg/mL: MIC ([3]; D39/D39LUX (serotype 2), 5% FBS) | MIC ([3]; D39/D39LUX (serotype 2), 10% FBS) | MIC ([3]; EF3030 (serotype 19F), 5% FBS) | MIC ([3]; EF3030 (serotype 19F), 10% FBS) | MIC90 ([3]; S1 Table isolates, 5% FBS) | MIC90 ([3]; S1 Table isolates, 10% FBS) | MIC ([3]; WCH16 (serotype 6A), 10% FBS) | MIC ([3]; WCH86 (serotype 4), 10% FBS) | MIC ([3]; WCH89 (serotype 7), 10% FBS) | MIC ([3]; WU2 (serotype 3), 5% FBS) | MIC ([3]; WU2 (serotype 3), 10% FBS)
affected viability at 8 μg/ml: Effect on cell viability (real-time) [4] | Effect on cell viability (real-time) [5]
2 µg/mL: MIC ([3]; WCH77 (serotype 5), 10% FBS)
4 to 8 µg/mL: MIC range ([3]; S1 Table isolates, 5% FBS + 3% washed RBC)
2 to 8 µg/mL: MIC range ([3]; 21 isolates) | MIC range ([3]; S1 Table isolates, 10% FBS + 3% washed RBC)

Reference: paper PMC5584945, “Evaluation of robenidine analog NCL195 as a novel broad-spectrum antibacterial agent” (PLoS ONE, 2017)
